Measurements: ChEMBL document CHEMBL3997786, “Development of Dihydroxyphenyl Sulfonylisoindoline Derivatives as Liver-Targeting Pyruvate Dehydrogenase Kinase Inhibitors” (J Med Chem, 2017)

How the values were obtained:
[1] = molecular target: T1, [Pyruvate dehydrogenase (acetyl-transferring)] kinase isozyme 2, mitochondrial (Homo sapiens, UniProt Q15119); test: Inhibition of N-terminal His6-SUMO tagged recombinant human PDK2 using [32P]-gamma-ATP assessed as decrease in incorporation of radioactivity into E1 protein incubated for 2 mins
[2] = molecular target: T1, [Pyruvate dehydrogenase (acetyl-transferring)] kinase isozyme 2, mitochondrial; test: Binding affinity to N-terminal His6-SUMO tagged recombinant human PDK2 by isothermal titration calorimetry
Plasma [3] = test: Terminal half life in CD1 mouse plasma at 70 mg/kg, ip by LC-MS/MS analysis; type: ADME, organism-based; details: in vivo
Plasma [4] = test: Cmax in CD1 mouse plasma at 70 mg/kg, ip by LC-MS/MS analysis; type: ADME, organism-based; set-up: dose 70 mg/kg, route intraperitoneal; details: in vivo
Plasma [5] = test: Tmax in CD1 mouse plasma at 70 mg/kg, ip by LC-MS/MS analysis; type: ADME, organism-based; details: in vivo
Plasma [6] = test: AUClast in CD1 mouse plasma at 70 mg/kg, ip by LC-MS/MS analysis; type: ADME, organism-based; set-up: dose 70 mg/kg, route intraperitoneal, time 0 - last; details: in vivo
Plasma [7] = test: Apparent volume of distribution during terminal phase in CD1 mouse plasma at 70 mg/kg, ip by LC-MS/MS analysis; type: ADME, organism-based; details: in vivo
[8] = Apparent clearance in CD1 mouse plasma at 70 mg/kg, ip by LC-MS/MS analysis; type: ADME, organism-based
Liver [9] = test: Terminal half life in CD1 mouse liver at 70 mg/kg, ip by LC-MS/MS analysis; type: ADME, organism-based; details: in vivo
Liver [10] = test: Cmax in CD1 mouse liver at 70 mg/kg, ip by LC-MS/MS analysis; type: ADME, organism-based; set-up: dose 70 mg/kg, route intraperitoneal; details: in vivo
Liver [11] = test: Tmax in CD1 mouse liver at 70 mg/kg, ip by LC-MS/MS analysis; type: ADME, organism-based; details: in vivo
Liver [12] = test: AUClast in CD1 mouse liver at 70 mg/kg, ip by LC-MS/MS analysis; type: ADME, organism-based; details: in vivo
Liver [13] = test: Apparent volume of distribution during terminal phase in CD1 mouse liver at 70 mg/kg, ip by LC-MS/MS analysis; type: ADME, organism-based; details: in vivo
Liver [14] = test: Apparent clearance in CD1 mouse liver at 70 mg/kg, ip by LC-MS/MS analysis; type: ADME, organism-based; details: in vivo
[15] = Terminal half life in CD1 mouse muscle at 70 mg/kg, ip by LC-MS/MS analysis; type: ADME, organism-based, Muscle tissue; details: read-out: beta t1/2
[16] = Cmax in CD1 mouse muscle at 70 mg/kg, ip by LC-MS/MS analysis; type: ADME, organism-based, Muscle tissue; set-up: dose 70 mg/kg, route intraperitoneal
[17] = Tmax in CD1 mouse muscle at 70 mg/kg, ip by LC-MS/MS analysis; type: ADME, organism-based, Muscle tissue
[18] = AUClast in CD1 mouse muscle at 70 mg/kg, ip by LC-MS/MS analysis; type: ADME, organism-based, Muscle tissue; details: in vivo
[19] = Apparent volume of distribution during terminal phase in CD1 mouse muscle at 70 mg/kg, ip by LC-MS/MS analysis; type: ADME, organism-based, Muscle tissue; details: in vivo
[20] = Apparent clearance in CD1 mouse muscle at 70 mg/kg, ip by LC-MS/MS analysis; type: ADME, organism-based, Muscle tissue; details: in vivo

O=C(O)CC(=O)N1CCC(Nc2ccc3c(c2)CN(S(=O)(=O)c2ccc(O)cc2O)C3)CC1
IC50 [1]: 1660 nM

O=S(=O)(c1ccc(O)cc1O)N1Cc2ccc(O)cc2C1
IC50 [1]: 570 nM

O=S(=O)(c1ccc(O)cc1O)N1Cc2ccc(NC3CCN(CC(O)CO)CC3)cc2C1 (configuration not stated)
IC50 [1]: 154 nM

NC(=O)C[C@H](N)C(=O)N1CCCN(c2ccc3c(c2)CN(S(=O)(=O)c2ccc(O)cc2O)C3)CC1
IC50 [1]: 1510 nM

O=C(O)CCCCCCCC(=O)N1CCC(Nc2ccc3c(c2)CN(S(=O)(=O)c2ccc(O)cc2O)C3)CC1
IC50 [1]: 629 nM

O=S(=O)(c1ccc(O)cc1O)N1Cc2ccc(NC3CCCCC3)cc2C1
IC50 [1]: 1200 nM

NCCCC[C@H](N)C(=O)N1CCC(Nc2ccc3c(c2)CN(S(=O)(=O)c2ccc(O)cc2O)C3)CC1
IC50 [1]: 580 nM

NC(=O)C[C@H](N)C(=O)NCCCNc1ccc2c(c1)CN(S(=O)(=O)c1ccc(O)cc1O)C2
IC50 [1]: 67 nM

NC(=O)C[C@H](N)C(=O)N1CC(Nc2ccc3c(c2)CN(S(=O)(=O)c2ccc(O)cc2O)C3)C1
IC50 [1]: 65 nM

C[C@H](O)[C@H](N)C(=O)N1CCC(Nc2ccc3c(c2)CN(S(=O)(=O)c2ccc(O)cc2O)C3)CC1
IC50 [1]: 91 nM

O=S(=O)(c1ccc(O)cc1O)N1Cc2ccc(NC3CCN(Cc4ccccc4)CC3)cc2C1
IC50 [1]: 416 nM

O=S(=O)(c1ccc(O)cc1O)N1Cc2ccc(N3CCNCC3)cc2C1
IC50 [1]: 1350 nM

O=S(=O)(c1ccc(O)cc1O)N1Cc2cc(O)cc(O)c2C1
IC50 [1]: 456 nM
Kd [2]: 156 nM
beta t1/2 (Plasma [3]): 5.65 h
Cmax (Plasma [4]): 29000 ng/mL
Tmax (Plasma [5]): 0.167 h
AUClast (Plasma [6]): 1494106 ng·min/mL
Vz/F (Plasma [7]): 679 mL
CL/F [8]: 1.39 mL/min
beta t1/2 (Liver [9]): 1.67 h
Cmax (Liver [10]): 5707 ng/g
Tmax (Liver [11]): 0.167 h
AUClast (Liver [12]): 245088 ng·min/g
Vz/F (Liver [13]): 1174 g
CL/F (Liver [14]): 8.13 g/min
half-life [15]: 8.57 h
Cmax [16]: 17400 ng/g
Tmax [17]: 0.5 h
AUClast [18]: 885986 ng·min/g
Vz/F [19]: 1720 g
CL/F [20]: 2.32 g/min
